Assay results published in USRE38257E1, “Piperdine derivatives and hypotensives containing the same” (Ajinomoto Co., Inc., priority 1988, dated 2003).

Test system: male spontaneously hypertensive rats
Assay: Decrease in systolic blood pressure in spontaneously hypertensive rats after intravenous bolus injection, indirect (tail-cuff) method
Type: in vivo, rat
Conditions: for Decrease in systolic blood pressure (mmHg) time after administration (hour) 0.5: 0.5 hour after administration; for Decrease in systolic blood pressure (mmHg) time after administration (hour) 4: 4 hours after administration
Protocol: As test animals, four male spontaneously hypertensive rats (weight 400 to 440 g) that were sufficiently adapted for feeding and in which hypertension was confirmed were used.
Physiological saline aqueous solution containing 2.5% Nicolle and 2.5% ethanol of sample was intravenously administered by bolus injection at a dose of 1 ml per 1 kg of body weight. Systolic blood pressure after administration was measured by the indirect (tail-cuff) method.

## COC(=O)c1ccccc1C=CCN1CCC(=C2c3ccccc3C=Cc3ccccc32)CC1.Cl [Example 374, 4-(5H-Dibenzo[a,d]cyclohepten-5-ylidene)-1-(2-methoxycarbonylcinnamyl)piperidine hydrochloride]
Dose 3 mg/kg i.v. bolus
  Decrease in systolic blood pressure (mmHg) time after administration (hour) 0.5: −119 mmHg
  Decrease in systolic blood pressure (mmHg) time after administration (hour) 4: 11 mmHg

## COC(=O)c1cccc(C=CCN2CCC(=C3c4ccccc4C=Cc4ccccc43)CC2)c1.Cl [Example 375, 4-(5H-Dibenzo[a,d]cyclohepten-5-ylidene)-1-(3-methoxycarbonylcinnamyl)piperidine hydrochloride]
Dose 1 mg/kg i.v. bolus
  Decrease in systolic blood pressure (mmHg) time after administration (hour) 0.5: −126 mmHg
  Decrease in systolic blood pressure (mmHg) time after administration (hour) 4: −70 mmHg

## COC(=O)c1ccc(C=CCN2CCC(=C3c4ccccc4C=Cc4ccccc43)CC2)cc1.Cl [Example 376, 4-(5H-Dibenzo[a,d]cyclohepten-5-ylidene)-1-(4-methoxycarbonylcinnamyl)piperidine hydrochloride]
Dose 3 mg/kg i.v. bolus
  Decrease in systolic blood pressure (mmHg) time after administration (hour) 0.5: −106 mmHg
  Decrease in systolic blood pressure (mmHg) time after administration (hour) 4: −77 mmHg

## COc1cccc(C=CCN2CCC(=C3c4ccccc4C=Cc4ccccc43)CC2)c1[N+](=O)[O-].Cl [Example 377]
Dose 1 mg/kg i.v. bolus
  Decrease in systolic blood pressure (mmHg) time after administration (hour) 0.5: −151 mmHg
  Decrease in systolic blood pressure (mmHg) time after administration (hour) 4: −73 mmHg

## COC(=O)Nc1ccc(C=CCN2CCC(=C3c4ccccc4C=Cc4ccccc43)CC2)cc1.Cl [Example 378, 4-(5H-Dibenzo[a,d]cyclohepten-5-ylidene)-1-(4-methoxycarbonylaminocinnamyl)piperidine hydrochloride]
Dose 1 mg/kg i.v. bolus
  Decrease in systolic blood pressure (mmHg) time after administration (hour) 0.5: −106 mmHg
  Decrease in systolic blood pressure (mmHg) time after administration (hour) 4: −90 mmHg

## CC(C)(C)C(=O)Nc1ccc(C=CCN2CCC(=C3c4ccccc4C=Cc4ccccc43)CC2)cc1.Cl [Example 379]
Dose 1 mg/kg i.v. bolus
  Decrease in systolic blood pressure (mmHg) time after administration (hour) 0.5: −118 mmHg
  Decrease in systolic blood pressure (mmHg) time after administration (hour) 4: −59 mmHg

## Cl.O=C(Nc1ccc(C=CCN2CCC(=C3c4ccccc4C=Cc4ccccc43)CC2)cc1)C(F)(F)F [Example 380, 4-(5H-Dibenzo[a,d]cyclohepten-5-ylidene)-1-(4-trifluoroacetylaminocinnamyl)piperidine hydrochloride]
Dose 0.3 mg/kg i.v. bolus
  Decrease in systolic blood pressure (mmHg) time after administration (hour) 0.5: −141 mmHg

## CCCC(=O)Nc1ccc(C=CCN2CCC(=C3c4ccccc4C=Cc4ccccc43)CC2)cc1.Cl [Example 381, 1-(4-Butanoylaminocinnamyl)-4-(5H-Dibenzo[a,d]cyclohepten-5-ylidene)piperidine hydrochloride]
Dose 3 mg/kg i.v. bolus
  Decrease in systolic blood pressure (mmHg) time after administration (hour) 0.5: −136 mmHg

## CCOC(=O)c1ccc(C=CCN2CCC(=C3c4ccccc4C=Cc4ccccc43)CC2)cc1.Cl [Example 382, 4-(5H-Dibenzo[a,d]cyclohepten-5-ylidene)-1-(4-ethoxycarbonylcinnamyl)piperidine hydrochloride]
Dose 3 mg/kg i.v. bolus
  Decrease in systolic blood pressure (mmHg) time after administration (hour) 0.5: −129 mmHg
  Decrease in systolic blood pressure (mmHg) time after administration (hour) 4: −74 mmHg

## COCC(=O)Oc1ccc(C=CCN2CCC(=C3c4ccccc4C=Cc4ccccc43)CC2)cc1.Cl [Example 383, 4-(5H-Dibenzo[a,d]cyclohepten-5-ylidene)-1-(4-(2-methoxyacetoxy)cinnamyl)piperidine hydrochloride]
Dose 3 mg/kg i.v. bolus
  Decrease in systolic blood pressure (mmHg) time after administration (hour) 0.5: −112 mmHg
  Decrease in systolic blood pressure (mmHg) time after administration (hour) 4: −86 mmHg

## C1=Cc2ccccc2C(=C2CCN(Cc3cc4ccccc4[nH]3)CC2)c2ccccc21.Cl [Example 385, 4-(5H-Dibenzo[a,d]cyclohepten-5-ylidene)-1-(2-indolylmethyl)piperidine hydrochloride]
Dose 10 mg/kg i.v. bolus
  Decrease in systolic blood pressure (mmHg) time after administration (hour) 0.5: −123 mmHg
  Decrease in systolic blood pressure (mmHg) time after administration (hour) 4: −96 mmHg

## Cl.NS(=O)(=O)c1ccc(C=CCN2CCC(=C3c4ccccc4C=Cc4ccccc43)CC2)cc1 [Example 386, 1-(4-Aminosulfonylcinnamyl)-4-(5H-Dibenzo[a,d]cyclohepten-5-ylidene)piperidine hydrochloride]
Dose 10 mg/kg i.v. bolus
  Decrease in systolic blood pressure (mmHg) time after administration (hour) 0.5: −83 mmHg
  Decrease in systolic blood pressure (mmHg) time after administration (hour) 4: −96 mmHg

## COc1cc(C=CCN2CCC(=C3c4ccccc4C=Cc4ccccc43)CC2)ccc1[N+](=O)[O-].Cl [Example 387, 4-(5H-Dibenzo[a,d]cyclohepten-5-ylidene)-1-(3-methoxy-4-nitrocinnamyl)piperidine hydrochloride]
Dose 10 mg/kg i.v. bolus
  Decrease in systolic blood pressure (mmHg) time after administration (hour) 0.5: −112 mmHg
  Decrease in systolic blood pressure (mmHg) time after administration (hour) 4: −50 mmHg

## N-(2-(5H-Dibenzo[a,d]cyclohepten-5-ylidene)-1-piperidinyl)ethyl isonicotinamide hydrochloride [Example 244]
Dose 10 mg/kg i.v. bolus
  Decrease in systolic blood pressure (mmHg) time after administration (hour) 0.5: −19 mmHg
  Decrease in systolic blood pressure (mmHg) time after administration (hour) 4: 4 mmHg
